Species on record: Rattus norvegicus
Test: DrugMatrix - Regimen: Daily Repeat
Format: toxicity, organism-based, Sprague-Dawley
Set-up: regimen Daily Repeat, gender Male, age 6-8 weeks
Conditions: in vivo, po, route oral GAVAGE, […]; for ABSOLUTE BASOPHIL / ABSOLUTE EOSINOPHIL / ABSOLUTE LYMPHOCYTE / ABSOLUTE MONOCYTE / ABSOLUTE SEGMENTED NEUTROPHIL / BASOPHIL / EOSINOPHIL / ERYTHROCYTE COUNT / HEMATOCRIT / HEMOGLOBIN / LEUKOCYTE COUNT / LYMPHOCYTE / MEAN CORPUSCULAR HEMOGLOBIN / MEAN CORPUSCULAR HEMOGLOBIN CONCENTRATION / MEAN CORPUSCULAR VOLUME / MONOCYTE / NEUTROPHIL / NUCLEATED RED BLOOD CELLS / PLATELET COUNT: tissue Blood; for ALANINE AMINOTRANSFERASE / ALBUMIN / ALKALINE PHOSPHATASE / ASPARTATE AMINOTRANSFERASE / BLOOD UREA NITROGEN / CARBON DIOXIDE / CHLORIDE / CHOLESTEROL / CREATINE PHOSPHOKINASE / CREATININE / GLUCOSE / LACTATE DEHYDROGENASE / LIPASE / PHOSPHORUS / POTASSIUM / SODIUM / TOTAL BILIRUBIN / TOTAL PROTEIN / URIC ACID: tissue Plasma
[1] = 0 mg/kg, 72 h, dose level Control, time 3 day
[2] = 0 mg/kg, 120 h, dose level Control, time 5 day
[3] = 13 mg/kg, 72 h, dose level Low, time 3 day

CN(C)c1nc(N(C)C)nc(N(C)C)n1 [ALTRETAMINE]
ABSOLUTE BASOPHIL [1]: 0 CELLS/uL
ABSOLUTE EOSINOPHIL [1]: 70.67 CELLS/uL
ABSOLUTE LYMPHOCYTE [1]: 12761.5 CELLS/uL
ABSOLUTE MONOCYTE [1]: 214.17 CELLS/uL
ABSOLUTE SEGMENTED NEUTROPHIL [1]: 987 CELLS/uL
BASOPHIL [1]: 0%
EOSINOPHIL [1]: 0.5%
ERYTHROCYTE COUNT [1]: 5.61 x10E6/uL
HEMATOCRIT [1]: 35.22%
HEMOGLOBIN [1]: 13.57 G/DL
LEUKOCYTE COUNT [1]: 14.03 x10E3/uL
LYMPHOCYTE [1]: 91%
MEAN CORPUSCULAR HEMOGLOBIN [1]: 24.25 pg
MEAN CORPUSCULAR HEMOGLOBIN CONCENTRATION [1]: 38.52 G/DL
MEAN CORPUSCULAR VOLUME [1]: 62.9 fL
MONOCYTE [1]: 1.5%
NEUTROPHIL [1]: 7%
NUCLEATED RED BLOOD CELLS [1]: 0 /100WBC
PLATELET COUNT [1]: 997.5 x10E3/uL
ALANINE AMINOTRANSFERASE [1]: 66.5 u/L
ALBUMIN [1]: 3.98 G/DL
ALKALINE PHOSPHATASE [1]: 350 u/L
ASPARTATE AMINOTRANSFERASE [1]: 83.83 u/L
BLOOD UREA NITROGEN [1]: 12.33 mg/dL
CARBON DIOXIDE [1]: 30.33 mmol/L
CHLORIDE [1]: 100 MEQ/L
CHOLESTEROL [1]: 75 mg/dL
CREATINE PHOSPHOKINASE [1]: 200 u/L
CREATININE [1]: 0.17 mg/dL
GLUCOSE [1]: 170 mg/dL
LACTATE DEHYDROGENASE [1]: 89.33 u/L
LIPASE [1]: 10.33 u/L
PHOSPHORUS [1]: 10.88 mg/dL
POTASSIUM [1]: 6.13 MEQ/L
SODIUM [1]: 140.53 MEQ/L
TOTAL BILIRUBIN [1]: 0.2 mg/dL
TOTAL PROTEIN [1]: 5.67 G/DL
URIC ACID [1]: 1.6 mg/dL
ABSOLUTE BASOPHIL [2]: 0 CELLS/uL
ABSOLUTE EOSINOPHIL [2]: 0 CELLS/uL
ABSOLUTE LYMPHOCYTE [2]: 9526.67 CELLS/uL
ABSOLUTE MONOCYTE [2]: 134.17 CELLS/uL
ABSOLUTE SEGMENTED NEUTROPHIL [2]: 922.5 CELLS/uL
BASOPHIL [2]: 0%
EOSINOPHIL [2]: 0%
ERYTHROCYTE COUNT [2]: 5.58 x10E6/uL
HEMATOCRIT [2]: 34.78%
HEMOGLOBIN [2]: 13.5 G/DL
LEUKOCYTE COUNT [2]: 10.58 x10E3/uL
LYMPHOCYTE [2]: 90.17%
MEAN CORPUSCULAR HEMOGLOBIN [2]: 24.27 pg
MEAN CORPUSCULAR HEMOGLOBIN CONCENTRATION [2]: 38.82 G/DL
MEAN CORPUSCULAR VOLUME [2]: 62.48 fL
MONOCYTE [2]: 1.17%
NEUTROPHIL [2]: 8.67%
NUCLEATED RED BLOOD CELLS [2]: 0.17 /100WBC
PLATELET COUNT [2]: 807.17 x10E3/uL
ALANINE AMINOTRANSFERASE [2]: 66.83 u/L
ALBUMIN [2]: 3.73 G/DL
ALKALINE PHOSPHATASE [2]: 286.17 u/L
ASPARTATE AMINOTRANSFERASE [2]: 142.33 u/L
BLOOD UREA NITROGEN [2]: 14.67 mg/dL
CARBON DIOXIDE [2]: 25.5 mmol/L
CHLORIDE [2]: 89.17 MEQ/L
CHOLESTEROL [2]: 75.17 mg/dL
CREATINE PHOSPHOKINASE [2]: 310.67 u/L
CREATININE [2]: 0.2 mg/dL
GLUCOSE [2]: 153 mg/dL
LACTATE DEHYDROGENASE [2]: 1594 u/L
LIPASE [2]: 14.83 u/L
PHOSPHORUS [2]: 11.28 mg/dL
POTASSIUM [2]: 8.46 MEQ/L
SODIUM [2]: 126.88 MEQ/L
TOTAL BILIRUBIN [2]: 0.37 mg/dL
TOTAL PROTEIN [2]: 5.53 G/DL
URIC ACID [2]: 1.52 mg/dL
ABSOLUTE BASOPHIL [3]: 0 CELLS/uL
ABSOLUTE EOSINOPHIL [3]: 45.67 CELLS/uL
ABSOLUTE LYMPHOCYTE [3]: 11954 CELLS/uL
ABSOLUTE MONOCYTE [3]: 232.67 CELLS/uL
ABSOLUTE SEGMENTED NEUTROPHIL [3]: 1567.67 CELLS/uL
BASOPHIL [3]: 0%
EOSINOPHIL [3]: 0.33%
ERYTHROCYTE COUNT [3]: 5.86 x10E6/uL
HEMATOCRIT [3]: 37.47%
HEMOGLOBIN [3]: 14.6 G/DL
LEUKOCYTE COUNT [3]: 13.8 x10E3/uL
LYMPHOCYTE [3]: 86.67%
MEAN CORPUSCULAR HEMOGLOBIN [3]: 24.97 pg
MEAN CORPUSCULAR HEMOGLOBIN CONCENTRATION [3]: 38.97 G/DL
MEAN CORPUSCULAR VOLUME [3]: 64 fL
MONOCYTE [3]: 1.67%
NEUTROPHIL [3]: 11.33%
NUCLEATED RED BLOOD CELLS [3]: 0 /100WBC
PLATELET COUNT [3]: 1022.33 x10E3/uL
ALANINE AMINOTRANSFERASE [3]: 99.33 u/L
ALBUMIN [3]: 4.03 G/DL
ALKALINE PHOSPHATASE [3]: 392.33 u/L
ASPARTATE AMINOTRANSFERASE [3]: 89.67 u/L
BLOOD UREA NITROGEN [3]: 12.33 mg/dL
CARBON DIOXIDE [3]: 29 mmol/L
CHLORIDE [3]: 99 MEQ/L
CHOLESTEROL [3]: 87.33 mg/dL
CREATINE PHOSPHOKINASE [3]: 288 u/L
CREATININE [3]: 0.18 mg/dL
GLUCOSE [3]: 161 mg/dL
LACTATE DEHYDROGENASE [3]: 193 u/L
LIPASE [3]: 10.67 u/L
PHOSPHORUS [3]: 11.53 mg/dL
POTASSIUM [3]: 6.64 MEQ/L
SODIUM [3]: 140.43 MEQ/L
TOTAL BILIRUBIN [3]: 0.23 mg/dL
TOTAL PROTEIN [3]: 5.83 G/DL
URIC ACID [3]: 1.97 mg/dL
